Experiment: Noncompartmental pharmacokinetic parameters (Cmax, Tmax, AUC, Racc) in QD and BID cohorts of Form B
Assay type: in vivo, human
Settings: for Racc (Max) / Racc (Mean) / Racc (Median) / Racc (Min): AUCDay 29/AUCDay 1
Description: Analysis of plasma concentration versus time data for calculation of standard pharmacokinetic (PK) parameters following oral administration was conducted using Phoenix WinNonlin version 6.3 using actual blood sampling times.
The following pharmacokinetic parameters were calculated from the concentration versus time data obtained in Example 1 for each of the above QD (200 mg, 300 mg, 400 mg, 500 mg, or 650 mg dosed) and BID (100 mg, 150 mg, or 200 mg doses) Form B of Compound II dosage cohorts: • Cmax—the observed peak plasma concentration determined from the plasma concentration versus time data obtained on Day 1 and Day 29, as applicable; • Tmax—the time to reach the observed peak plasma concentration from the plasma concentration versus time data obtained on Day 1 and Day 29, as applicable; • AUC—area under the plasma concentration versus time curve during a dosing interval on Day 1 and Day 29, as applicable; and • Racc—accumulation ratio calculated as AUCDay 29/AUCDay 1.

[1] = Cohort 1, 200 mg QD of Form B, Day 1
[2] = Cohort 2, 300 mg QD of Form B, Day 1
[3] = Cohort 3, 400 mg QD of Form B, Day 1
[4] = Cohort 4, 500 mg QD of Form B, Day 1
[5] = Cohort 5, 650 mg QD of Form B, Day 1
[6] = Cohort 6, 100 mg BID of Form B, Day 1
[7] = Compound I, 100 mg BID of Form B, Cohort 6
[8] = Compound I, 100 mg BID of Form B, Cohort 6, Day 29
[9] = Compound I, 150 mg BID of Form B, Cohort 7
[10] = Compound I, 150 mg BID of Form B, Cohort 7, Day 1
[11] = Compound I, 150 mg BID of Form B, Cohort 7, Day 29
[12] = Compound I, 200 mg BID of Form B, Cohort 7, Day 1
[13] = Compound I, 200 mg BID of Form B, Cohort 8
[14] = Compound I, 200 mg BID of Form B, Cohort 8, Day 29
[15] = Compound I, 200 mg QD of Form B, Cohort 1
[16] = Compound I, 200 mg QD of Form B, Cohort 1, Day 29
[17] = Compound I, 300 mg QD of Form B, Cohort 2
[18] = Compound I, 300 mg QD of Form B, Cohort 2, Day 29
[19] = Compound I, 400 mg QD of Form B, Cohort 3
[20] = Compound I, 400 mg QD of Form B, Cohort 3, Day 29
[21] = Compound I, 500 mg QD of Form B, Cohort 4
[22] = Compound I, 500 mg QD of Form B, Cohort 4, Day 29
[23] = Compound I, 650 mg QD of Form B, Cohort 5
[24] = Compound I, 650 mg QD of Form B, Cohort 5, Day 29

CC(C)N1CCN(c2ccc(Nc3ncc4cc5n(c4n3)C3(CCCCC3)CNC5=O)nc2)CC1 [Compound I, 2′-((5-(4-isopropylpiperazin-1-yl)pyridin-2-yl)amino)-7′,8′-dihydro-6′H-spiro[cyclohexane-1,9′-pyrazino[1′,2′:1,5]pyrrolo[2,3-d]pyrimidin]-6′-one]
AUClast (Max) [1]: 355 ng·h/mL
AUClast (Min) [1]: 98.9 ng·h/mL
Cmax (Max) [1]: 40.0 ng/mL
Cmax (Min) [1]: 8.26 ng/mL
AUClast (Max) [2]: 580 ng·h/mL
AUClast (Min) [2]: 106 ng·h/mL
AUClast (Max) [3]: 248 ng·h/mL
AUClast (Min) [3]: 177 ng·h/mL
Cmax (Max) [3]: 24.4 ng/mL
Cmax (Min) [3]: 14.4 ng/mL
AUClast (Max) [4]: 684 ng·h/mL
AUClast (Min) [4]: 403 ng·h/mL
Cmax (Max) [4]: 68.7 ng/mL
Cmax (Min) [4]: 27.8 ng/mL
AUClast (Max) [5]: 1040 ng·h/mL
AUClast (Min) [5]: 482 ng·h/mL
Cmax (Max) [5]: 80.7 ng/mL
Cmax (Min) [5]: 38.2 ng/mL
Tmax (Max) [5]: 10.0 h
AUClast (Max) [6]: 92.6 ng·h/mL
AUClast (Min) [6]: 42.8 ng·h/mL
Cmax (Max) [6]: 14.7 ng/mL
Cmax (Min) [6]: 7.25 ng/mL
Racc (Max) [7]: 2.96 (h * ng/mL)/(h * ng/mL)
Racc (Mean) [7]: 1.90 (h * ng/mL)/(h * ng/mL)
Racc (Median) [7]: 2.06 (h * ng/mL)/(h * ng/mL)
Racc (Min) [7]: 0.931 (h * ng/mL)/(h * ng/mL)
AUClast (Max) [8]: 183 ng·h/mL
AUClast (Min) [8]: 41.1 ng·h/mL
Cmax (Max) [8]: 20.5 ng/mL
Cmax (Min) [8]: 5.14 ng/mL
Tmax (Max) [8]: 12.0 h
Tmax (Min) [8]: 60 min
Racc (Max) [9]: 7.71 (h * ng/mL)/(h * ng/mL)
Racc (Mean) [9]: 3.88 (h * ng/mL)/(h * ng/mL)
Racc (Median) [9]: 2.28 (h * ng/mL)/(h * ng/mL)
Racc (Min) [9]: 1.66 (h * ng/mL)/(h * ng/mL)
AUClast (Max) [10]: 146 ng·h/mL
AUClast (Min) [10]: 103 ng·h/mL
Cmax (Max) [10]: 28.3 ng/mL
Cmax (Min) [10]: 12.2 ng/mL
AUClast (Max) [11]: 795 ng·h/mL
AUClast (Min) [11]: 235 ng·h/mL
Cmax (Max) [11]: 83.2 ng/mL
AUClast (Max) [12]: 185 ng·h/mL
AUClast (Min) [12]: 37.9 ng·h/mL
Cmax (Max) [12]: 29.0 ng/mL
Cmax (Min) [12]: 5.28 ng/mL
Racc (Max) [13]: 2.15 (h * ng/mL)/(h * ng/mL)
Racc (Mean) [13]: 2.06 (h * ng/mL)/(h * ng/mL)
Racc (Median) [13]: 2.11 (h * ng/mL)/(h * ng/mL)
Racc (Min) [13]: 1.91 (h * ng/mL)/(h * ng/mL)
AUClast (Max) [14]: 306 ng·h/mL
AUClast (Min) [14]: 79.8 ng·h/mL
Cmax (Max) [14]: 40.8 ng/mL
Cmax (Min) [14]: 7.69 ng/mL
Tmax (Max) [14]: 12.0 h
Racc (Max) [15]: 1.72 (h * ng/mL)/(h * ng/mL)
Racc (Mean) [15]: 1.17 (h * ng/mL)/(h * ng/mL)
Racc (Median) [15]: 1.15 (h * ng/mL)/(h * ng/mL)
Racc (Min) [15]: 0.740 (h * ng/mL)/(h * ng/mL)
AUClast (Max) [16]: 407 ng·h/mL
AUClast (Min) [16]: 73.2 ng·h/mL
Cmax (Max) [16]: 32.0 ng/mL
Cmax (Min) [16]: 5.90 ng/mL
Racc (Max) [17]: 3.62 (h * ng/mL)/(h * ng/mL)
Racc (Mean) [17]: 2.03 (h * ng/mL)/(h * ng/mL)
Racc (Median) [17]: 1.42 (h * ng/mL)/(h * ng/mL)
Racc (Min) [17]: 1.04 (h * ng/mL)/(h * ng/mL)
AUClast (Max) [18]: 789 ng·h/mL
AUClast (Min) [18]: 384 ng·h/mL
Cmax (Max) [18]: 73.0 ng/mL
Cmax (Min) [18]: 27.5 ng/mL
Tmax (Max) [18]: 10.0 h
Racc (Max) [19]: 1.90 (h * ng/mL)/(h * ng/mL)
Racc (Mean) [19]: 1.35 (h * ng/mL)/(h * ng/mL)
Racc (Median) [19]: 1.50 (h * ng/mL)/(h * ng/mL)
Racc (Min) [19]: 0.653 (h * ng/mL)/(h * ng/mL)
AUClast (Max) [20]: 371 ng·h/mL
AUClast (Min) [20]: 115 ng·h/mL
Cmax (Max) [20]: 26.7 ng/mL
Cmax (Min) [20]: 6.94 ng/mL
Racc (Max) [21]: 1.47 (h * ng/mL)/(h * ng/mL)
Racc (Mean) [21]: 1.12 (h * ng/mL)/(h * ng/mL)
Racc (Median) [21]: 0.965 (h * ng/mL)/(h * ng/mL)
Racc (Min) [21]: 0.932 (h * ng/mL)/(h * ng/mL)
AUClast (Max) [22]: 660 ng·h/mL
AUClast (Min) [22]: 570 ng·h/mL
Cmax (Max) [22]: 48.2 ng/mL
Cmax (Min) [22]: 36.4 ng/mL
Racc (Max) [23]: 1.47 (h * ng/mL)/(h * ng/mL)
Racc (Mean) [23]: 1.12 (h * ng/mL)/(h * ng/mL)
Racc (Median) [23]: 0.965 (h * ng/mL)/(h * ng/mL)
Racc (Min) [23]: 0.932 (h * ng/mL)/(h * ng/mL)
AUClast (Max) [24]: 660 ng·h/mL
AUClast (Min) [24]: 570 ng·h/mL
Cmax (Max) [24]: 48.2 ng/mL
Cmax (Min) [24]: 36.4 ng/mL

From patent publication US11357779B2 (G1 Therapeutics, Inc., priority 2018, dated 2022)
